Among the data in the OPERA property sets (Mansouri et al. 2018) are logP values, retold here.

Where a SMILES comes first, the peptide text is derived from it. [ ]: non-standard residue; d: D form. ξ: configuration not given here. ξY = NC(Cc1ccc(O)cc1)C(=O)O

`COc1cc2c(Nc3cc(CC(=O)Nc4cccc(F)c4F)[nH]n3)ncnc2cc1OCCCN1CCCC1CO` (centres undefined): the logP (commonly the decadic logarithm of the partition coefficient of the neutral form, usually between octanol and water) was 3.6.

On to `CC(C)CC(N)C(=O)NC(CC(C)C)C(=O)NC(CC(C)C)C(=O)NC(Cc1ccccc1)C(=O)O` (centres undefined) (H-LLLF-OH; configuration not given here), for which the logP was 0.24.

In the case of `Nc1nnnn1-c1ccc(Br)cc1`, the logP turned out to be 1.63.

Consider `CC(C)(C)[N+]([O-])=Cc1ccc(Br)cc1`, for which the logP is 2.

The compound `CC(C)(C)[N+]([O-])=Cc1cccc([N+](=O)[O-])c1` showed a logP of 1.3.

The compound `Nc1ccc2nc3ccccn3c2n1` registered a logP of 1.38.

Compound `NC(Cc1ccc(O)cc1)C(=O)NCC(=O)NCC(=O)O` (stereo not drawn) (H-[ξY]-Gly-Gly-OH) showed a log partition coefficient (logP) of -3.51.

`C=C(C)C(=O)OCCCCCCCCCCCC` displayed a lipophilicity (logP) of 6.57.

In the case of `CC(C)NC(=NC#N)NS(=O)(=O)c1cnccc1Nc1cccc(F)c1`, the logP came out at 1.59.

`CCCCC(C)CC(O)C=CC1C(O)CC2CC(CCOCC(=O)OC)CC21` (centres undefined) returned a logP of 4.5.

With `CCCCCCNCCO`, the lipophilicity (logP) came out at 1.67.

`O=C(NCC(F)(F)F)NS(=O)(=O)c1cnccc1NC1CCCCCCC1`: the logP was determined as 4.22.

As for `OC(CCCN1CCC(C(O)(c2ccccc2)c2ccccc2)CC1)c1ccccc1` (centres undefined), the logP came to 3.9.

`C=CC1(C)C=C2CCC3C(C)(CO)CCCC3(C)C2CC1` (centres undefined) yielded a log partition coefficient (logP) of 6.85.

Regarding `CC(C)NC(=NC#N)NS(=O)(=O)c1cnccc1NCc1ccccc1`, the log partition coefficient (logP) turned out to be 1.36.

As for `COC(=O)C=CCn1cc([N+](=O)[O-])nc1C`, the logP was found to be 0.16.

On to `CCOC(=O)c1ccc(N=NN(C)C(=O)OCOC(=O)C(C)NC(C)=O)cc1` (centres undefined), for which the logP is 2.73.

As for `Cc1nc2c3c(c(C(=O)N(C)C)cn2c1C)CCC(c1ccc(F)cc1)O3` (centres undefined), the log partition coefficient (logP) was determined as 3.5.

Consider `CC1(C)OC23CC1CCC2CCCC3(C)O` (centres undefined), for which the logP amounted to 3.57.

As to `CC(C)c1cccc(C(C)C)c1NC(=O)CC(=O)C1(c2ccccc2)CCCC1`, the lipophilicity (logP) came to 4.55.

As to `CC(C)CNc1[nH]cnc2ncnc1-2`, the logP was 1.92.

`NC(Cc1ccccc1)C(=O)NC(Cc1ccccc1)C(=O)NCC(=O)NC(Cc1ccccc1)C(=O)O` (centres undefined) (H-FFGF-OH; configuration not given here) came in with a logP of 0.17.

The compound `CCCc1nc(N(C)C)nc(N2CCOCC2)n1` registered a logP of 1.64.

In turn, `COC(=O)C(C)NP(=O)(OCC1C=CC(n2cc(C)c(=O)[nH]c2=O)O1)Oc1ccccc1Cl` (centres undefined) yielded a logP of 1.37.

Take `COC1C(OC(C)=O)CC(=O)OC(C)CC=CC=CC(=O)C(C)CC(CC=O)C1OC1OC(C)C(OC2CC(CO)C(OC(=O)CC(C)C)C(C)O2)C(N(C)C)C1O` (centres undefined): the lipophilicity (logP) is 3.52.

`COc1cc2ncnc(Nc3cc(F)cc(C(F)(F)F)c3)c2cc1OC` displayed a log partition coefficient (logP) of 4.66.

Compound `OCC1OC(Oc2ccc3cc(Br)ccc3c2)C(O)C(O)C1O` (centres undefined) registered a logP of 1.97.

With `Clc1ccc(Cl)c2c1oc1c(Cl)ccc(Cl)c12`, the log partition coefficient (logP) was found to be 5.6.

In turn, `S=C=NC(c1ccccc1)c1ccccc1` gave a lipophilicity (logP) of 5.09.

On to `CC(C)NCC(O)COc1ccc(-c2nc(C(C)C)c[nH]2)cc1` (centres undefined), for which the lipophilicity (logP) was found to be 2.95.

The compound `CCCc1c2c(cc3c(=O)cc(C(=O)O)oc13)CCCC2` came in with a log partition coefficient (logP) of 4.2.

`Clc1ccccc1N1CCN(CCn2nnc3ccccc32)CC1` yielded a log partition coefficient (logP) of 3.35.

Take `O=c1cc(-c2ccccc2)oc2ccc(Cl)cc12`: the logP was 3.92.

In the case of `CCOC(=O)c1cccc2c1CC(c1ccc(OC)cc1)C(OC(C)=O)C(=O)N2CCN(C)C` (centres undefined), the logP worked out at 4.2.

In the case of `CC(=O)OC(C)(C)C1CCC2(C)CCCC(C)(O)C2C1` (centres undefined), the log partition coefficient (logP) worked out at 3.8.

Take `COC(=O)c1c(Oc2nc(OC)cc(OC)n2)cccc1C(C)=NOCc1ccccc1`: the logP stood at 4.01.

As for `CCCCCCNc1ncnc2c1ncn2C1OC(CO)C(O)C1O` (centres undefined), the logP was found to be 2.24.

Consider `Cc1c[nH]c(Cc2ccc(OCC(O)CNC(C)(C)C)cc2)n1` (centres undefined), for which the logP was 1.4.

In turn, `CC1(C)C2CCC(CO)C1C2` (centres undefined) displayed a log partition coefficient (logP) of 3.41.

In turn, `CCc1cccc(COC(=O)C2C(C=C(C)C(=O)OC)C2(C)C)c1` (centres undefined) registered a logP of 5.42.

`CC(=O)OCOC(=O)N(C)N=Nc1ccc(C)cc1` returned a logP of 3.28.

In turn, `CCCNc1[nH]cnc2ncnc1-2` had a logP of 1.44.

Turning to `OCCCCCCCCNc1ncnc2c1ncn2C1OC(CO)C(O)C1O` (centres undefined), the lipophilicity (logP) was 1.3.

The compound `Cc1ccc(C)c(Cc2cnc[nH]2)c1` showed a lipophilicity (logP) of 2.72.

In turn, `CN(C/C=C/C#CC(C)(C)C)Cc1cccc2ccccc12` showed a logP of 6.

With `CC(C)CC(Nc1ccc([N+](=O)[O-])cc1[N+](=O)[O-])C(=O)O` (centres undefined), the lipophilicity (logP) came to 3.25.

In the case of `O=C(O)c1ccccc1C(c1ccc(O)cc1)c1ccc(O)cc1`, the logP was 2.61.

As to `O=[N+]([O-])c1ccc2c(c1)-c1ccccc1C2`, the logP came out at 3.99.

Turning to `CCCCCCCCCCCCCCc1ccccc1`, the logP amounted to 9.95.

Consider `c1ccc2c(c1)OCC(CCc1ncc[nH]1)O2` (centres undefined), for which the logP worked out at 1.99.

`CCSc1cccc2nc(N)nc(N)c12` registered a log partition coefficient (logP) of 2.27.

Compound `CCCCCNC(=O)N1C(=O)N(C)CC1O` (centres undefined) gave a log partition coefficient (logP) of 1.75.

Regarding `CCCc1nc(N)nc(N2CCOCC2)n1`, the log partition coefficient (logP) turned out to be 0.7.

`O=C(O)CCCCON=C(c1ccccc1)c1ncccn1`: the logP was 1.94.

For the compound `O=C1c2ccccc2OCN1CCO[N+](=O)[O-]`, the logP worked out at 1.85.

`COc1ccc(C(C)=O)c(O)c1`: the logP turned out to be 1.98.

On to `CC(C)(O)C1CCC2(C)CCCC(C)(O)C2C1` (centres undefined), for which the log partition coefficient (logP) turned out to be 3.04.

For `CCOC(=O)C1=C(C)NC(C)=C(C(=O)OC)C1C` (centres undefined), the logP worked out at 3.27.

`CC(=O)OC1CCCC2(C)CCC(C(C)(C)O)CC12` (centres undefined) displayed a lipophilicity (logP) of 3.42.

`CCC(C)C(N)C(=O)NC(CO)C(=O)NC(CC(C)C)C(=O)O` (stereo not drawn) (H-Ile-Ser-Leu-OH; configuration not given here) gave a lipophilicity (logP) of -2.28.

Compound `CC(C)CC(N)C(=O)NC(C(=O)NCC(=O)NC(C(=O)NC(Cc1ccccc1)C(=O)O)C(C)O)C(C)C` (centres undefined) (H-LVGTF-OH; configuration not given here) had a logP of -1.18.

Compound `Clc1ccc(C=NOCCc2nnc(-c3ccccc3)o2)cc1` showed a lipophilicity (logP) of 3.01.

The compound `O=C(O)Cc1ccccc1Nc1c(F)cccc1F` registered a log partition coefficient (logP) of 3.57.

Consider `c1nc(N2CCCCC2)c2[nH]cnc2n1`, for which the logP was found to be 2.11.

Take `Cc1ccc(N2CC(N3CCOCC3)=CC2=O)cc1`: the log partition coefficient (logP) was 1.4.

For `COc1ccc(C2Cc3cc(OC(=O)C(C)(C)C)ccc3N(CCN(C)C)C(=O)C2OC(C)=O)cc1` (centres undefined), the lipophilicity (logP) came out at 4.9.

For `O=C1c2ccc(Cl)cc2OCN1CCO[N+](=O)[O-]`, the logP stood at 2.74.

As for `CCOCCOCCOC1CCC(NC(=O)NC23CC4CC(CC(C4)C2)C3)CC1` (centres undefined), the lipophilicity (logP) was 2.9.

Turning to `Cc1cc2ccc(=O)oc2c2ccoc12`, the logP came to 2.39.

`Cc1cc2cc3c(C)cc(=O)oc3cc2o1` gave a logP of 2.82.

`COc1ccc2c(c1)COP(=O)(OCC1C=CC(n3cc(C)c(=O)[nH]c3=O)O1)O2` (centres undefined) had a lipophilicity (logP) of 0.36.

Compound `CCOC(=O)CC(C(=O)OC)S(=O)(=O)c1ccc([N+](=O)[O-])cc1` (centres undefined) yielded a log partition coefficient (logP) of 1.4.

The compound `CC1=C(CC(=O)O)c2cc(F)ccc2C1=Cc1ccc(S(C)(=O)=O)cc1` had a logP of 3.29.

In turn, `O=C(O)CCCCCON=C(c1ccccc1)c1cncnc1` came in with a logP of 2.91.
